In PubChem BioAssay (NCI):
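Five concentrations, 48 hours, 96-well plates. The concentration for full growth arrest is given as TGI.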

Legend:
Assay in all cases: inhibition of tumour cell growth, NCI panel, 48 h
OVCAR-3 ovarian = test system: OVCAR-3 ovarian
SK-MEL-28 melanoma = test system: SK-MEL-28 melanoma
MALME-3M melanoma = test system: MALME-3M melanoma
K-562 leukemia = test system: K-562 leukemia
OVCAR-8 ovarian = test system: OVCAR-8 ovarian
HOP-18 NSCLC = test system: HOP-18 NSCLC
ACHN renal = test system: ACHN renal
CCRF-CEM leukemia = test system: CCRF-CEM leukemia
HCT-116 colon = test system: HCT-116 colon
SNB-75 CNS = test system: SNB-75 CNS
SF-295 CNS = test system: SF-295 CNS
HOP-92 NSCLC = test system: HOP-92 NSCLC
RPMI-8226 leukemia = test system: RPMI-8226 leukemia
HT29 colon = test system: HT29 colon
SF-268 CNS = test system: SF-268 CNS
UO-31 renal = test system: UO-31 renal
SNB-78 CNS = test system: SNB-78 CNS
DMS 273 small cell lung = test system: DMS 273 small cell lung
EKVX NSCLC = test system: EKVX NSCLC
SN12C renal = test system: SN12C renal
U251 CNS = test system: U251 CNS
HL-60(TB) leukemia = test system: HL-60(TB) leukemia
NCI-H23 lung = test system: NCI-H23 lung
786-0 renal = test system: 786-0 renal
OVCAR-4 ovarian = test system: OVCAR-4 ovarian
MOLT-4 leukemia = test system: MOLT-4 leukemia
UACC-257 melanoma = test system: UACC-257 melanoma
SF-539 CNS = test system: SF-539 CNS
A549 NSCLC = test system: A549 NSCLC
XF 498 CNS = test system: XF 498 CNS
DMS 114 small cell lung = test system: DMS 114 small cell lung
SK-OV-3 ovarian = test system: SK-OV-3 ovarian
M14 melanoma = test system: M14 melanoma
COLO 205 colon = test system: COLO 205 colon
SNB-19 CNS = test system: SNB-19 CNS
RXF 393 renal = test system: RXF 393 renal
HOP-62 NSCLC = test system: HOP-62 NSCLC
UACC-62 melanoma = test system: UACC-62 melanoma
PC-3 prostate = test system: PC-3 prostate
MDA-MB-435 = test system: MDA-MB-435
SK-MEL-5 melanoma = test system: SK-MEL-5 melanoma
IGROV1 ovarian = test system: IGROV1 ovarian
NCI-H460 lung = test system: NCI-H460 lung
KM12 colon = test system: KM12 colon
DU-145 prostate = test system: DU-145 prostate
A498 renal = test system: A498 renal
BT-549 breast = test system: BT-549 breast
MDA-N = test system: MDA-N
NCI-H226 lung = test system: NCI-H226 lung
HCC-2998 colon = test system: HCC-2998 colon
SW-620 colon = test system: SW-620 colon
OVCAR-5 ovarian = test system: OVCAR-5 ovarian
NCI/ADR-RES ovarian = test system: NCI/ADR-RES ovarian
HCT-15 colon = test system: HCT-15 colon
NCI-H522 lung = test system: NCI-H522 lung
T-47D breast = test system: T-47D breast
MCF7 breast = test system: MCF7 breast
LOX IMVI melanoma = test system: LOX IMVI melanoma
CAKI-1 renal = test system: CAKI-1 renal
SK-MEL-2 melanoma = test system: SK-MEL-2 melanoma
SR leukemia = test system: SR leukemia
MDA-MB-231 breast = test system: MDA-MB-231 breast
TK-10 renal = test system: TK-10 renal
HS 578T breast = test system: HS 578T breast

With `COc1ccc(CSc2nc3ccccc3nc2-c2cccs2)cc1` the TGI (OVCAR-3 ovarian) was over 100 µM, the TGI (SK-MEL-28 melanoma) was over 100 µM and the TGI (MALME-3M melanoma) was over 100 µM. For the same molecule, the TGI (K-562 leukemia) was over 100 µM, the TGI (OVCAR-8 ovarian) was over 100 µM and the TGI (HOP-18 NSCLC) was over 100 µM. For the same molecule, the TGI (ACHN renal) was over 100 µM, the TGI (CCRF-CEM leukemia) was 76.3 µM and the TGI (HCT-116 colon) was over 100 µM. For the same molecule, the TGI (SNB-75 CNS) was over 100 µM, the TGI (SF-295 CNS) was over 100 µM and the TGI (HOP-92 NSCLC) was over 100 µM. The TGI (RPMI-8226 leukemia) was over 100 µM, the TGI (HT29 colon) was over 100 µM and the TGI (SF-268 CNS) was over 100 µM. The TGI (UO-31 renal) was over 100 µM, the TGI (SNB-78 CNS) was over 100 µM and the TGI (DMS 273 small cell lung) was over 100 µM. The TGI (EKVX NSCLC) was over 100 µM, the TGI (SN12C renal) was over 100 µM and the TGI (U251 CNS) was over 100 µM. It also gave a TGI (HL-60(TB) leukemia) of over 100 µM, a TGI (NCI-H23 lung) of over 100 µM and a TGI (786-0 renal) of over 100 µM. For the same molecule, the TGI (OVCAR-4 ovarian) was over 100 µM, the TGI (MOLT-4 leukemia) was over 100 µM and the TGI (UACC-257 melanoma) was over 100 µM. It also gave a TGI (SF-539 CNS) of over 100 µM, a TGI (A549 NSCLC) of over 100 µM and a TGI (XF 498 CNS) of over 100 µM. For the same molecule, the TGI (DMS 114 small cell lung) was over 100 µM, the TGI (SK-OV-3 ovarian) was over 100 µM and the TGI (M14 melanoma) was over 100 µM. It also gave a TGI (COLO 205 colon) of over 100 µM and a TGI (SNB-19 CNS) of over 100 µM.

`CCCCCCCC(=O)N/N=C/c1ccc(Sc2nccn2C)c([N+](=O)[O-])c1` gave a TGI (OVCAR-3 ovarian) of 36.4 µM, a TGI (SK-MEL-28 melanoma) of 27.3 µM and a TGI (RXF 393 renal) of 30.4 µM. The TGI (HOP-62 NSCLC) was 36.4 µM, the TGI (MALME-3M melanoma) was 29 µM and the TGI (UACC-62 melanoma) was 25.8 µM. For the same molecule, the TGI (K-562 leukemia) was 82.6 µM, the TGI (PC-3 prostate) was 33.2 µM and the TGI (MDA-MB-435) was 28.5 µM. The TGI (OVCAR-8 ovarian) was 37.4 µM, the TGI (ACHN renal) was 75.2 µM and the TGI (SK-MEL-5 melanoma) was 26.1 µM. The TGI (CCRF-CEM leukemia) was 17.2 µM, the TGI (HCT-116 colon) was 28.5 µM and the TGI (SNB-75 CNS) was 39 µM. For the same molecule, the TGI (IGROV1 ovarian) was 24.7 µM, the TGI (SF-295 CNS) was 33.9 µM and the TGI (HOP-92 NSCLC) was 15 µM. It also gave a TGI (NCI-H460 lung) of 30.5 µM, a TGI (KM12 colon) of 32.1 µM and a TGI (DU-145 prostate) of 46.7 µM. The TGI (RPMI-8226 leukemia) was 46.7 µM, the TGI (A498 renal) was 32 µM and the TGI (BT-549 breast) was 34.2 µM. It also gave a TGI (MDA-N) of 32 µM, a TGI (NCI-H226 lung) of 32.5 µM and a TGI (HT29 colon) of 23.4 µM. The TGI (HCC-2998 colon) was 26.5 µM, the TGI (SF-268 CNS) was 32 µM and the TGI (UO-31 renal) was 22.7 µM. It also gave a TGI (SW-620 colon) of 32.8 µM, a TGI (EKVX NSCLC) of 42.8 µM and a TGI (SN12C renal) of 28.9 µM. For the same molecule, the TGI (OVCAR-5 ovarian) was 39.2 µM, the TGI (U251 CNS) was 32.2 µM and the TGI (HL-60(TB) leukemia) was 0.772 µM. For the same molecule, the TGI (NCI-H23 lung) was 42.9 µM, the TGI (786-0 renal) was 32.4 µM and the TGI (NCI/ADR-RES ovarian) was 48.9 µM. It also gave a TGI (HCT-15 colon) of 29.3 µM, a TGI (NCI-H522 lung) of 28.4 µM and a TGI (OVCAR-4 ovarian) of 58.3 µM. The TGI (MOLT-4 leukemia) was 62.5 µM, the TGI (T-47D breast) was 37 µM and the TGI (MCF7 breast) was 38.2 µM. It also gave a TGI (UACC-257 melanoma) of 26.9 µM, a TGI (LOX IMVI melanoma) of 22.6 µM and a TGI (SF-539 CNS) of 34 µM. It also gave a TGI (A549 NSCLC) of over 100 µM, a TGI (SK-OV-3 ovarian) of over 100 µM and a TGI (M14 melanoma) of 27.7 µM. The TGI (CAKI-1 renal) was 72.1 µM, the TGI (SK-MEL-2 melanoma) was 31 µM and the TGI (SR leukemia) was 55.6 µM. For the same molecule, the TGI (COLO 205 colon) was 27.5 µM, the TGI (MDA-MB-231 breast) was 30.1 µM and the TGI (SNB-19 CNS) was 87 µM. For the same molecule, the TGI (TK-10 renal) was 83.2 µM and the TGI (HS 578T breast) was 39.3 µM.
